Patent publication US7314863B2, “Cyclic peptidomimetic urokinase receptor antagonists” (Wilex AG, priority 1999, dated 2008)
Positions of bridges follow the written chain, without caps; N, C: chain ends. Non-standard residues stand in square brackets, D forms with d. Residues, ends and D or L forms follow the SMILES beside them. Tic = O=C(O)[C@@H]1Cc2ccccc2CN1; Nle = CCCC[C@H](N)C(=O)O; Orn = NCCC[C@H](N)C(=O)O; Dab = NCC[C@H](N)C(=O)O; Dap = NC[C@H](N)C(=O)O

Tests used:
plasmin = experiment: Sensitivity to the tissue protease plasmin (HPLC); format: in vitro ADME; settings: 0.05 U plasmin, 37° C., 30 min, pH 7.5
Description: The sensitivity of peptides against the attack of various proteases of the digestive tract was determined in vitro using purified enzymes under suitable buffer conditions. In general, 10 μg of peptide were incubated in a 100 μl volume with 2 μg of protease at 37° C. for 30 min under the buffer conditions for the activity controls as stated by the manufacturer. After incubation and dilution with 300 μl of H2O, the mixtures were analyzed directly, without prepurification via a precolumn, by HPLC using a 20-60% gradient of H2O, 0.1% trifluoroacetic acid and acetonitrile, 0.1% trifluoroacetic acid.
Pepsin (Sigma, Deisenhofen, Germany) was incubated with peptides in 52 mM HCl. Incubations with trypsin (Sigma) were carried out in 63 mM sodium phosphate pH 7.6. Chymotrypsins α, β, γ,δ (ICN) were incubated in 50 mM CaCl2 and 40 mM Tris/HCl pH 7.8. This was followed by incubating with bacteriae proteinase K in unbuffered water. The positive control used was the *peptide cyclo[19,31]-uPA16-32 which corresponds to the original sequence of the uPA omega loop except for the cysteine bridge. The peptide sensitivity against the tissue protease plasmin (Sigma) was assayed in mixtures with 10 or 5 μg of peptides and 0.05 U of plasmin in 100 μl of 200 mM sodium phosphate pH 7.5 at 37° C. and a 30 min incubation period.
FIG. 5 depicts HPLC profiles of peptide variants prior to (top profiles) and after (bottom profiles) incubation with plasmin. Part (A) of the figure depicts the unaltered lead structure cyclo[21,29][D-Cys^21Cys^29]-uPA21-30 with lysine at position 23, (B) the ornithine-substituted variant cyclo[21,29][D-Cys^21Orn^23Cys^29]-uPA21-30, (C) the diaminobutyric acid-substituted variant cyclo[21,29][D-Cys^21Dab^23Cys^29]-uPA21-30, (D) the diaminopropionic acid-substituted variant cyclo[21,29][D-Cys^21Dap^23Cys^29]-uPA21-30, (E) the norleucine-substituted variant cyclo[21,29][D-Cys^21Nle^23Cys^29]-uPA21-30 and (F) the arginine-substituted variant cyclo[21,29][D-Cys^21Arg^23Cys^29]-uPA21-30. The protease plasmin appears in the bottom profiles in each case at approx. 17.5 min.

uPAR = target: T1, uPAR (Homo sapiens, UniProt Q03405); experiment: Flow cytometry: inhibition of FITC-pro-uPA binding to uPAR on PMA-stimulated U937 cells; settings: for IC50: FIG. 1a, read-out: IC50 (inhibition of uPA/uPAR interaction) (converted); for affinity/activity for uPAR lower than that of ATF: relative to ATF
T1 construct: human promyeloid cell line U937 as source for cellular native uPAR; endogenous in cells; host or cells: U937 cells stimulated with PMA
T1 sequence (Q03405 23-305): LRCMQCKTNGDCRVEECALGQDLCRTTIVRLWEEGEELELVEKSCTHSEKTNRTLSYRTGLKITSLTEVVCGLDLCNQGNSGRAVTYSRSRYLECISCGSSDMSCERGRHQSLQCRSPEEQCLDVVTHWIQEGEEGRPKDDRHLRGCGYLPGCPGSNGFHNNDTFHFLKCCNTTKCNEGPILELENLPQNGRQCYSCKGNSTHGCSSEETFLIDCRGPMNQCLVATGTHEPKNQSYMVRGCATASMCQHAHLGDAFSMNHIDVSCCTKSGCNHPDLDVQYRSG
Description: The capacity of the synthetic peptides for inhibiting uPA/uPAR interaction was determined using the human promyeloid cell line U937 as source for cellular native uPAR by means of flow cytometry on a FACScan flow cytometer (Becton-Dickinson, Heidelberg, Germany) (Chuchulowski et al., Fibrinolysis 6, Suppl. 4 (1992), 95-102; Magdolen et al., (1996), supra). The U937 cells were stimulated with […] phorbol 12-myristate 13-acetate (PMA) for 48 h. After stimulation with PMA, the U937 cells express considerable amounts of cell surface-associated uPAR.
The stimulated cells were treated with 50 m glycine-HCl, 0.1 NaCl, pH 3.6 at room temperature for 1 min, in order to dissociate endogenous receptor-bound uPA. Subsequently, the acidic buffer was neutralized by 0.5 M HEPES, 100 mM NaCl, pH 7.5. The cells were then immediately washed twice with PBS/0.1% bovine serum albumin (BSA) and centrifuged at 300×g at room temperature for 10 min. The cells were resuspended in PBS/0.1% BSA, adjusted to a concentration of 10^6 cells per ml and incubated simultaneously with 1.6 ng of FITC-conjugated pro-uPA and different amounts of the synthetic peptides at room temperature for 45 min. Prior to analysis, propidium iodide, a fluorescent dye binding specifically double-stranded DNA, was added to each sample, in order to determine the viability of the analyzed U937 cells. Damaged, propidium iodide-labeled cells were excluded from the analysis.

[1] = Peptide stability in human serum (HPLC); format: in vitro ADME; settings: 37° C., 20.5 h
Description: (§1) The stability of uPA-derived peptides in human serum or complete blood was assayed in vitro.
Human sera were prepared by allowing venous blood to coagulate without anti-coagulant in polypropylene tubes at 37° C. for 45 min. The clots adhering to the vessel wall were removed using a plastic stick and removed by centrifugation at 1200×g at room temperature for 12 min. The serum in the supernatant was removed and either used freshly for stability studies or frozen in aliquots at −20° C. for further use.
(§2) For stability studies in human complete blood, coagulation of venous blood was inhibited by heparin sodium (1 000 IU per 10 ml of complete blood), and the blood was used freshly. The peptides to be tested were added to the body fluids in the form of peptide-mixture stock solutions (≧1 μg per peptide in H2O) at a concentration of 5 μg/100 μl of serum or 200 μl of complete blood (per peptide) and incubated at 37° C. for various times. Prior to HPLC analysis, complete blood incubations were centrifuged at 16 000×g at room temperature for 5 min and the plasma in the supernatant was removed.
Sera and plasmas were prepurified via HLB precolumns (Waters GmbH, Oasis HLB extraction cartridge 1 cm^3/30 mg) prior to HPLC analysis. For this purpose, 100 μl of liquid were diluted with PBS to 1 ml and applied to said HLB precolumns equilibrated with 1 ml of 100% methanol and 1 ml of H2O. The columns were washed with 1ml of 5% methanol in H2O and eluted with 1 ml of 100% methanol. The first 200 μl (4 drops) of the eluate were discarded as void volume. The next 500 μl of eluate were diluted with 500 μl of PBS and analyzed by HPLC. […]
The stability of the peptides inhuman serum (FIG. 4a) was studied by adding a mixture of in each case 12.5 μg of the peptides to about 250 μl of serum. 100 μl thereof were diluted with PBS to 1 ml, prepurified on an HLB precolumn and analyzed immediately by HPLC (middle profile). A further 100 μl were analyzed after 20.5 h of incubation at 37° C. […] As a control, in each case 5 μg of the peptides were admixed with 1 ml of PBS and analyzed (top profile). […]

[2] = Peptide stability in heparinized human complete blood (HPLC); format: in vitro ADME; settings: for stability in heparinized human blood: 37° C., 20.5 h, HPLC of plasma; for distribution between plasma and blood cells: heparinized human blood, peak integrals versus PBS control
Description: as §1, §2
Sera and plasmas were prepurified via HLB precolumns (Waters GmbH, Oasis HLB extraction cartridge 1 cm^3/30 mg) prior to HPLC analysis. For this purpose, 100 μl of liquid were diluted with PBS to 1 ml and applied to said HLB precolumns equilibrated with 1 ml of 100% methanol and 1 ml of H2O. The columns were washed with 1ml of 5% methanol in H2O and eluted with 1 ml of 100% methanol. The first 200 μl (4 drops) of the eluate were discarded as void volume. The next 500 μl of eluate were diluted with 500 μl of PBS and analyzed by HPLC. The remaining 300 μl of the eluate were discarded. HPLC analysis was carried out using a YMC-5 C18 analytical column and a 20-60% gradient of H2O, 0.1% trifluoroacetic acid and acetonitrile, 0.1% trifluoroacetic acid over 30 min and detecting the analytes at 220 nm.
The stability in heparinized human blood (FIG. 4b) was studied by adding 750 μl of freshly prepared heparinized human blood to 37.5 μg of the peptides. Immediately thereafter, 375 μl were removed by centrifugation. 100 μl of the plasma supernatant were analyzed (middle profile). The remaining 375 μl were incubated with gentle agitation at 37° C. for 20.5 h and then analyzed (bottom profile). As a control, 5 μg of the peptides had already been admixed with 1 ml of PBS and analyzed (top profile).

| stability against plasmin (plasmin) | stability in human serum [1] | stability in heparinized human blood [2] | Molecule | other results |
| --- | --- | --- | --- | --- |
| stable against plasmin | – | – | CC[C@H](C)[C@@H]1NC(=O)[C@H](CC(N)=O)NC(=O)[C@H](CO)NC(=O)[C@H](Cc2ccccc2)NC(=O)[C@H](Cc2ccc(O)cc2)NC(=O)[C@H](CCN)NC(=O)[C@H](CC(N)=O)NC(=O)[C@H](N)CSSC[C@@H](C(=O)N[C@@H](Cc2c[nH]c3ccccc23)C(=O)O)NC1=O [cyclo[21,29][D-Cys^21Dab^23Cys^29]-uPA21-30] (H-[dC]N[Dab]YFSNICW-OH; disulfide 1-9; N-terminus assumed) | – |
| – | – | – | CC[C@H](C)[C@@H]1NC(=O)[C@H](CC(N)=O)NC(=O)[C@H](CO)NC(=O)[C@H](Cc2ccccc2)NC(=O)[C@H](Cc2ccc(O)cc2)NC(=O)[C@H](CCCCN)NC(=O)[C@H](CC(N)=O)NC(=O)[C@@H](N)CSSC[C@@H](C(=O)N[C@@H](Cc2c[nH]c3ccccc23)C(=O)O)NC1=O [cyclo[21,29][Cys^21,29]-uPA21-30, reference compound] (H-CNKYFSNICW-OH; disulfide 1-9; N-terminus and C-terminus assumed) | IC50 (uPAR): 2.26 µM; affinity/activity for uPAR lower than that of ATF (uPAR): hundred-fold lower |
| a new unknown peak appeared | unaltered | stable | CC[C@H](C)[C@@H]1NC(=O)[C@H](CC(N)=O)NC(=O)[C@H](CO)NC(=O)[C@H](Cc2ccccc2)NC(=O)[C@H](Cc2ccc(O)cc2)NC(=O)[C@H](CCCCN)NC(=O)[C@H](CC(N)=O)NC(=O)[C@H](N)CSSC[C@@H](C(=O)N[C@@H](Cc2c[nH]c3ccccc23)C(=O)O)NC1=O [cyclo[21,29][D-Cys^21,Cys^29]uPA21-30] (H-[dC]NKYFSNICW-OH; disulfide 1-9; N-terminus and C-terminus assumed) | distribution between plasma and blood cells [2]: distributed mainly in the plasma; IC50 (uPAR): 0.078 µM; affinity/activity for uPAR lower than that of ATF (uPAR): 4 |
| stable against plasmin | – | – | CCCC[C@@H]1NC(=O)[C@H](CC(N)=O)NC(=O)[C@H](N)CSSC[C@@H](C(=O)N[C@@H](Cc2c[nH]c3ccccc23)C(=O)O)NC(=O)[C@H]([C@@H](C)CC)NC(=O)[C@H](CC(N)=O)NC(=O)[C@H](CO)NC(=O)[C@H](Cc2ccccc2)NC(=O)[C@H](Cc2ccc(O)cc2)NC1=O [cyclo[21,29][D-Cys^21Nle^23Cys^29]-uPA21-30] (H-[dC]N[Nle]YFSNICW-OH; disulfide 1-9; N-terminus assumed) | – |
| stable against plasmin | – | – | CC[C@H](C)[C@@H]1NC(=O)[C@H](CC(N)=O)NC(=O)[C@H](CO)NC(=O)[C@H](Cc2ccccc2)NC(=O)[C@H](Cc2ccc(O)cc2)NC(=O)[C@H](CCCN)NC(=O)[C@H](CC(N)=O)NC(=O)[C@H](N)CSSC[C@@H](C(=O)N[C@@H](Cc2c[nH]c3ccccc23)C(=O)O)NC1=O [cyclo[21,29][D-Cys^21Orn^23Cys^29]-uPA21-30] (H-[dC]N[Orn]YFSNICW-OH; disulfide 1-9; N-terminus assumed) | – |
| – | unaltered | stable | CC[C@H](C)[C@@H]1NC(=O)[C@H](CC(N)=O)NC(=O)[C@H](CO)NC(=O)[C@@H]2Cc3ccccc3CN2C(=O)[C@H](Cc2ccc(O)cc2)NC(=O)[C@H](CCCCN)NC(=O)[C@H](CC(N)=O)NC(=O)[C@H](N)CSSC[C@@H](C(=O)N[C@@H](Cc2c[nH]c3ccccc23)C(=O)O)NC1=O [cyclo[21,29][D-Cys^21,Tic^25,Cys^29]-uPA21-30] (H-[dC]NKY[Tic]SNICW-OH; disulfide 1-9; N-terminus assumed) | distribution between plasma and blood cells [2]: distributed mainly in the plasma |
| – | could no longer be detected | instability | cyclo[19,31]-uPA16-32 [reference compound] | part of the amount of peptide added degraded ([2]; complete blood, 10-15 min between addition and prepurification): > 80% |
| two small unidentified peaks appeared | – | – | CC[C@H](C)[C@@H]1NC(=O)[C@H](CC(N)=O)NC(=O)[C@H](CO)NC(=O)[C@H](Cc2ccccc2)NC(=O)[C@H](Cc2ccc(O)cc2)NC(=O)[C@H](CN)NC(=O)[C@H](CC(N)=O)NC(=O)[C@H](N)CSSC[C@@H](C(=O)N[C@@H](Cc2c[nH]c3ccccc23)C(=O)O)NC1=O [cyclo[21,29][D-Cys^21Dap^23Cys^29]-uPA21-30] (H-[dC]N[Dap]YFSNICW-OH; disulfide 1-9; N-terminus assumed) | – |
| plasmin-sensitive | – | – | CC[C@H](C)[C@@H]1NC(=O)[C@H](CC(N)=O)NC(=O)[C@H](CO)NC(=O)[C@H](Cc2ccccc2)NC(=O)[C@H](Cc2ccc(O)cc2)NC(=O)[C@H](CCCNC(=N)N)NC(=O)[C@H](CC(N)=O)NC(=O)[C@H](N)CSSC[C@@H](C(=O)N[C@@H](Cc2c[nH]c3ccccc23)C(=O)O)NC1=O [cyclo[21,29][D-Cys^21Arg^23Cys^29]-uPA21-30] (H-[dC]NRYFSNICW-OH; disulfide 1-9; N-terminus assumed) | – |
